Where two headings read alike, the source gives them in different places.
Experiments:
in vivo = conditions: female, cattle
Description: In the urine, up to 30% of an administered dose appears as a conjugate of glucuronic acid and pregnanediol.

[1] = rat, in vivo; cited from earlier work
[2] = cited from earlier work
[3] = prior art, cited from earlier work
[4] = Serum oestradiol after intravaginal release of oestradiol 17β/cyclodextrin tablets; oestradiol half life; assay type: in vivo, cattle
Description: However, oestradiol benzoate is only one of the preferred oestrogen component of the present invention.
For the purpose of the present invention as exampled via the control of oestrus in cattle, release of oestrogen tablets into the vagina was carefully timed and recorded. […] A 1 mg dose produced maximum mean values of 130-180 pg/ml at 100-130 minutes after treatment, while a 2 mg dose led to maxima of 180 to >250 pg at 120-150 minutes.
A 1 mg dose produced maximum mean values of 130-180 pg/ml at 100-130 minutes after treatment, while a 2 mg dose led to maxima of 180 to >250 pg at 120-150 minutes, as illustrated in FIG. 11.

[5] = 24 mg controlled release implants, non-pregnant heifers; cited from earlier work
[6] = within 6 hours of ingesting 1.5 g, human subjects; cited from earlier work
cattle = assay: Luteolysis studies with intravaginal sodium cloprostenol; assay type: in vivo
Description: In effecting the desired delivery regime for the present invention as directed to use in controlling bestrus in cattle, a number of studies were conducted. […] There is no reliable blood test for sodium cloprostenol. The best test is to assess the success of luteolysis following application of sodium cloprostenol.

dairy cows = conditions: seven hundred and thirty seven dairy cows, three years; cited from earlier work
[7] = treated cows; cited from earlier work
[8] = 7.2 mg oestradiol 17β intravaginally
[9] = 1 mg dose, intravaginal tablet with cyclodextrin carrier
[10] = 1 mg oestradiol benzoate by intramuscular injection
[11] = vaginal administration of 10 mg oestradiol benzoate

## CC(=O)[C@H]1CC[C@H]2[C@@H]3CCC4=CC(=O)CC[C@]4(C)[C@H]3CC[C@]12C [progesterone]
In vivo
  half-life: ~20 min
[1]
  LD100: 327.1 mg/kg
[2]; in vivo
  half-life of progesterone in blood: only a few minutes

## C[C@]12CC[C@@H]3c4ccc(O)cc4CC[C@H]3[C@@H]1CC[C@@H]2O [oestradiol 17β, oestra-1,3,5 (10)-triene-3,17β-diol]
[3]; 7.2 mg oestradiol 17β intravaginally with cyclodextrin
  peak plasma oestradiol concentration: 10 to 20 pg/mL
[3]; [8]
  duration of elevated plasma levels: at least 24 hours
  time of peak plasma oestradiol: four
[4]; [9]
  maximum mean serum oestradiol: 130 to 180 pg/mL
  time of maximum serum oestradiol after treatment: 100 to 130 min
[4]; 2 mg dose, intravaginal tablet with cyclodextrin carrier
  time of maxima of serum oestradiol: 120 to 150 min
[4]; intravaginal oestrogen tablets
  time for serum oestradiol to reach peak values from basal levels: 2 to 3 h
[4]; oestradiol without the benzoate component
  half life: only a few minutes

## C[C@]12CC[C@@H]3c4ccc(O)cc4CC[C@H]3[C@@H]1CC[C@@H]2O [oestradiol]
[5]
  oestrogen levels in tissues of slaughtered animals: not significantly different from untreated animals

## OCc1ccccc1 [benzyl alcohol]
[6]
  dose eliminated in the urine as hippuric acid: 75% to 85%

## O=C(O)CCC/C=C\CC1C(O)CC(O)C1/C=C/C(O)COc1cccc(Cl)c1 (stereo not drawn) [sodium cloprostenol, cloprostenol sodium]
cattle; HPβCD carrier, increased dose rate
  response to treatment compared with prior art intramuscular injection of prostaglandin alone: equivalent response
cattle; intravaginal, without a suitable carrier, at the level dosed
  luteolytic effect: not having a complete luteolic effect
cattle; same dose administered with HPβCD
  luteolytic effect: incomplete luteolysis
Dairy cows
  side effects on subsequent fertility: no chronic side effects on subsequent fertility

## C[C@]12CC[C@@H]3c4ccc(OC(=O)c5ccccc5)cc4CC[C@H]3[C@@H]1CC[C@@H]2O [oestradiol benzoate, oestra-1,3,5 (10)-triene-3,17β-diol 3-benzoate]
[3]; [10]
  peak plasma oestradiol concentration: 8 to 13 pg/mL
  time of peak plasma oestradiol: approximately 2 hours
[3]; [11]
  peak plasma oestradiol concentration: 2 to 5 pg/mL
  time of peak plasma oestradiol: 2 to 48 h
[4]; bovine, in vivo
  half life: longer than two to three minutes

## CCCCC[C@H](O)/C=C/[C@@H]1[C@@H](C/C=C\CCCC(=O)O)[C@@H](O)C[C@H]1O [prostaglandin PGF2α, prostaglandin F2α]
[2]; rapid breakdown
  half-life: a few minutes
[7]
  half-life in the blood: three

From US20060052341A1, “Control of a biological function” (priority 2002, published 2006)
